Read-outs that look alike come from different tables or passages of the source.
Experiments:
[1] = tested on: platelet aggregation induced by ADP; assay: Test of inhibitory effect of compounds on platelet aggregation in rats (ex vivo, ADP-induced, after intragastric administration); parameters: species or system SD rats; conditions: for ED50: Rattus norvegicus; for Inhibition rate (%): platelet aggregation, control = 100%; for Aggregation rate (%): 2 h after administration, ADP 20 uM
Procedure: Test of Inhibitory Effect of Compounds on Platelet Aggregation in Rats Healthy male SD rats were selected and randomly divided into solvent control group, positive drug control group and test compound group. Intragastric administration was carried out, with the administration volume being 10 ml/kg˜bw. […] The platelet count was adjusted to 5×10^8 cells/ml with PPP.

[2] = tested on: arteriovenous bypass thrombosis in rats; assay: Test of effect of compounds on arteriovenous bypass thrombosis in rats; assay type: in vivo, SD rats; conditions: rats; for Inhibition rate (%): dry weight of thrombus
Procedure: Test of Effect of Compounds on Arteriovenous Bypass Thrombosis in Rats
Male SD rats were randomly divided into solvent control group, positive drug control group and test compound group. The solvent control group was administered a corresponding volume of the solvent. […] Rats were anesthetized with 4% chloral hydrate (0.32 g/kg), and fixed on the operating table at the supine position. The right common carotid artery and the left external jugular vein were separated, and was each inserted with a Teflon tube filled with normal saline solution containing heparin (50 U/mL), which were connected through another Teflon tube. A 6 cm long cotton thread was placed at the joints of the two tubes. After 2.5 h of administration, the arteriovenous loop was opened in each group and circulated for 15 min. The blood flow was interrupted, and the cotton thread wrapped with the thrombus was quickly removed and weighed. The weight of the cotton thread was subtracted to obtain the wet weight of the thrombus, and then it was baked in the oven to constant weight and weighed. The weight of the cotton thread was subtracted to obtain the dry weight of the thrombus.

[3] = for Concentration of incubated compound in human plasma / Incubated compound in human plasma, %: 1 μM
Procedure: Plasma samples (double sample) containing 1 μM of the compounds of the present invention, clopidogrel hydrogen sulfate (LBGL), 2-oxo product (2-Oxo) were prepared from human blank plasma, and incubated at 37° C. 50 μL of the above incubated plasma samples were taken at different time points, and 100 μL of precipitant (acetonitrile:methanol=7:3) and 50 μL of internal standard were added. The mixture was vortexed for 1 min and centrifuged for 10 min. 100 μL of the supernatant was taken into an inner inserted tube, centrifuged for 5 min, and injected for LC-MS/MS analysis.
Preparation of blank control sample (PPT-0): 100 μL of frozen human blank plasma was taken, to which 195 μL of acetonitrile and 100 μL of internal standard were added, followed by 5 μL of the compound of the present invention, clopidogrel or 2-oxo product (20 μM). The mixture was vortexed for 1 min and centrifuged for 10 min. 100 μL of the supernatant was taken into an inner inserted tube, centrifuged for 5 min, and injected for LC-MS/MS analysis.

[4] = Stability of the compounds under high temperature, high humidity and light (influence factors, HPLC); assay type: physicochemical
Procedure: Study on the Stability of the Compounds:
The stability of the compound is investigated under the conditions of high temperature, high humidity and light. The testing conditions for high performance liquid chromatography (HPLC) are as follows:
Instrument: high performance liquid chromatography;
Column: Inertsil C8-3, 150 mm×4.6 mm, 5 μm;
Mobile phase A: acetonitrile; mobile phase B: 5 mM ammonium dihydrogen phosphate;
Detection wavelength: 220 nm;
Column temperature: 35° C.;
Sample chamber temperature: 25° C.;
Column: Agilent Poroshell 120 EC-C18, 100 mm×4.6 mm, 2.7 μm;
Column temperature: 30° C.;
Other conditions are the same as that in Method 1.
Samples relating to Compound I-2 were tested using Method 2 and other samples were tested using Method 1. The test results of the influence factors are shown in Table 14, and the test results of the light-avoidance stability test are shown in Table 15.

[5] = inhibition of ADP-induced platelet aggregation, rats, oral administration, read-out: ED50
[6] = 5 days, High temperature 60° C.
[7] = 10 days, High temperature 60° C.
[8] = 30 days, High temperature 60° C.

## COC(=O)[C@H](c1ccccc1Cl)N1CCc2sccc2C1 [Clopidogrel, reference compound]
[1]; [5]
  ED50: 4.13 mg/kg
[1]; rats, intragastric 2.5 mg/kg
  Inhibition rate (%): 26.5%
  Aggregation rate (%): 44.1 ± 13.5%
[1]; rats, intragastric 5 mg/kg
  Inhibition rate (%): 59.7%
  Aggregation rate (%): 24.2 ± 10.6 %
[1]; rats, intragastric 10 mg/kg
  Inhibition rate (%): 90.5%
  Aggregation rate (%): 5.7 ± 7.5 %
[2]; Rattus norvegicus, po, dry weight of thrombus from arteriovenous bypass, intragastric, read-out: ED50
  ED50: 11.8 mg/kg
[2]; intragastric 3 mg/kg
  Inhibition rate (%): 24.2%
[2]; intragastric 10 mg/kg
  Inhibition rate (%): 41.5%
[2]; intragastric 30 mg/kg
  Inhibition rate (%): 72.6%
[3]; 0 min
  Concentration of incubated compound in human plasma: 0.965 µM
  Incubated compound in human plasma, %: 98.1%
[3]; 5 min
  Concentration of incubated compound in human plasma: 1.045 µM
  Incubated compound in human plasma, %: 106%
[3]; 10 min
  Concentration of incubated compound in human plasma: 1.000 µM
  Incubated compound in human plasma, %: 102%
[3]; 20 min
  Concentration of incubated compound in human plasma: 0.987 µM
  Incubated compound in human plasma, %: 100%
[3]; 30 min
  Concentration of incubated compound in human plasma: 1.025 µM
  Incubated compound in human plasma, %: 104%
[3]; 45 min
  Concentration of incubated compound in human plasma: 0.995 µM
  Incubated compound in human plasma, %: 101%
[3]; 60 min
  Concentration of incubated compound in human plasma: 0.981 µM
  Incubated compound in human plasma, %: 100%
[3]; 90 min
  Concentration of incubated compound in human plasma: 0.924 µM
  Incubated compound in human plasma, %: 94.0%
[3]; 120 min
  Concentration of incubated compound in human plasma: 0.944 µM
  Incubated compound in human plasma, %: 96.0%
[3]; plasma, 2 h
  Stability in human plasma: substantially stable

## COC(=O)[C@H](c1ccccc1Cl)N1CCc2sc(OC(=O)/C=C/c3ccc(OC)cc3)cc2C1 [Compound D-8, Methyl (S,E)-2-(2-chlorophenyl)-2-(2-(3-(4-methoxyphenyl)acryloyloxy)-6,7-dihydrothieno[3,2-c]pyridin-5(4H)-yl)-acetate, reference compound]
[4]; 0 day, 0point
  Chromatographic purity %: 99.118%
  Individual maximum impurity %: 0.135%
[4]; 5 days, High humidity RH92.5%
  Chromatographic purity %: 99.253%
  Individual maximum impurity %: 0.127%
[4]; [6]
  Chromatographic purity %: 96.953%
  Individual maximum impurity %: 0.510%
[4]; 5 days, Light 4500 ± 500 LX
  Chromatographic purity %: 91.635%
  Individual maximum impurity %: 1.094%
[4]; 10 days, High humidity RH92.5%
  Chromatographic purity %: 99.202%
  Individual maximum impurity %: 0.104%
[4]; [7]
  Chromatographic purity %: 93.371%
  Individual maximum impurity %: 1.224%
[4]; 10 days, Light 4500 ± 500 LX
  Chromatographic purity %: 80.960%
  Individual maximum impurity %: 2.821%
[4]; 30 days, High humidity RH92.5%
  Chromatographic purity %: 98.933%
  Individual maximum impurity %: 0.172%
[4]; [8]
  Chromatographic purity %: 80.070%
  Individual maximum impurity %: 5.418%
[4]; 30 days, Light 4500 ± 500 LX
  Chromatographic purity %: 59.908%
  Individual maximum impurity %: 8.206%

## COC(=O)[C@H](c1ccccc1Cl)N1CCc2sc(OC(C)=O)cc2C1.Cl [Compound D-9, Methyl (S,E)-2-(2-chlorophenyl)-2-(2-acetoxy-6,7-dihydrothieno[3,2-c]pyridin-5(4H)-yl)-acetate Hydrochloride, reference compound]
[4]; 0 day, 0point
  Chromatographic purity %: 99.802%
  Individual maximum impurity %: 0.062%
[4]; 5 days, High humidity RH92.5%
  Chromatographic purity %: 29.362%
  Individual maximum impurity %: 20.760%
[4]; [6]
  Chromatographic purity %: 92.725%
  Individual maximum impurity %: 2.897%
[4]; 5 days, Light 4500 ± 500 LX
  Chromatographic purity %: 97.637%
  Individual maximum impurity %: 0.946%
[4]; 10 days, High humidity RH92.5%
  Chromatographic purity %: 3.827%
  Individual maximum impurity %: 26.942%
[4]; [7]
  Chromatographic purity %: 84.395%
  Individual maximum impurity %: 5.254%
[4]; 10 days, Light 4500 ± 500 LX
  Chromatographic purity %: 96.472%
  Individual maximum impurity %: 1.621%
[4]; 30 days, High humidity RH92.5%
  Individual maximum impurity %: 52.717%
[4]; [8]
  Chromatographic purity %: 39.866%
  Individual maximum impurity %: 9.740%
[4]; 30 days, Light 4500 ± 500 LX
  Chromatographic purity %: 91.198%
  Individual maximum impurity %: 3.728%

## C=C/C=C/C(=O)Oc1cc2c(s1)CCN([C@H](C(=O)OC)c1ccccc1Cl)C2 [Compound I-3, Methyl (S,E)-2-(2-chlorophenyl)-2-(2-(2,4-pentadienoyloxy)-6,7-dihydrothieno[3,2-c]pyridin-5(4H)-yl)-acetate]
[1]; [5]
  ED50: 1.04 mg/kg
[1]; rats, intragastric 1 mg/kg
  Inhibition rate (%): 44.0%
  Aggregation rate (%): 33.6 ± 31.3%
[1]; rats, intragastric 2 mg/kg
  Inhibition rate (%): 97.6%
  Aggregation rate (%): 1.44 ± 2.5 %
[1]; rats, intragastric 4 mg/kg
  Inhibition rate (%): 100%
  Aggregation rate (%): 0.0 ± 0.0 %

## CC/C=C/C(=O)Oc1cc2c(s1)CCN([C@H](C(=O)OC)c1ccccc1Cl)C2 [Compound I-4, Methyl (S,E)-2-(2-chlorophenyl)-2-(2-(2-pentenoyloxy)-6,7-dihydrothieno[3,2-c]pyridin-5(4H)-yl)-acetate]
[1]; [5]
  ED50: 1.27 mg/kg
[1]; rats, intragastric 0.5 mg/kg
  Inhibition rate (%): 26.2%
  Aggregation rate (%): 44.3 ± 25.8%
[1]; rats, intragastric 1 mg/kg
  Inhibition rate (%): 38.2%
  Aggregation rate (%): 37.1 ± 20.8%
[1]; rats, intragastric 2 mg/kg
  Inhibition rate (%): 62.9%
  Aggregation rate (%): 22.3 ± 17.2 %
[1]; rats, intragastric 4 mg/kg
  Inhibition rate (%): 78.4%
  Aggregation rate (%): 13.0 ± 11.3 %
[1]; rats, intragastric 8 mg/kg
  Inhibition rate (%): 100.0%
  Aggregation rate (%): 0.0 ± 0.0 %

## CCC/C=C/C(=O)Oc1cc2c(s1)CCN([C@H](C(=O)OC)c1ccccc1Cl)C2 [Compound I-5, Methyl (S,E)-2-(2-chlorophenyl)-2-(2-(2-hexenoyloxy)-6,7-dihydrothieno[3,2-c]pyridin-5(4H)-yl)-acetate]
[1]; Platelet, po
  ED50: 1.03 mg/kg
[1]; rats, intragastric 0.5 mg/kg
  Inhibition rate (%): 19.5%
  Aggregation rate (%): 48.4 ± 17.3%
[1]; rats, intragastric 1 mg/kg
  Inhibition rate (%): 52.8%
  Aggregation rate (%): 28.3 ± 11.7 %
[1]; rats, intragastric 2 mg/kg
  Inhibition rate (%): 74.3%
  Aggregation rate (%): 15.4 ± 14.7 %

Source: patent US11466025B2, “Thienopyridine derivatives containing unsaturated aliphatic olefinic bond, preparation method and use thereof” (Tianjin Institute of Pharmaceutical Research Co., Ltd., priority 2017, dated 2022)
